Tested on: full-thickness wound in C57BL/KsJ db/db mice
Experiment: db/db mouse full-thickness wound model
Type: in vivo
Settings: for wound area reduction: 100 μl applied once daily for 18 days, day 18 following wound construction (vehicle 73%); for day from which wound area differs significantly (p<0.05) from the vehicle control group: once daily
Source text: Test Example 1 (db/db mouse full-thickness wound model)
Using 10-week-old male C57BL/KsJ db/db mice (db/db mice) and the corresponding control C57BL/KsJ +m/+m mice (+m/+m mice), the back hair coat was removed with a depilatory cream. After 3 days, using ophthalmological scissors, the skin in a circular area with a diameter of about 1.5 cm at the dorsal midline was removed to construct a full-thickness wound. Thereafter, the full-thickness wound area was covered with a poly-urethane film agent. During 18 consecutive days beginning the day of wound construction, 100 μl of the investigational compound solution or distilled water (vehicle) was taken in a syringe and applied through the polyurethane film once daily. The polyurethane film agent was changed every day and after disinfection with 3% H2O2, the drug was applied in the same manner as above. The wound area was measured by the tracing method under light anesthesia every other day as a rule. With the initial wound area at the beginning of drug application being taken as 100%, the fractional area at each day of measurement was calculated.

Which results are given for `O=C(O)COc1cccc2c1CC[C@](O)(COC(=O)N(c1ccccc1)c1ccccc1)C2` [test compound, [[(2R)-5-(carboxymethoxy)-2-hydroxy-1,2,3,4-tetrahydronaphth-2-yl]methyl]N,N-diphenylcarbamate]?
early expansion of wound area (0.01% and 0.1% solutions): not observed; overall conclusion on wound healing (0.01% and 0.1% solutions): wound healing-promoting action; wound area reduction (0.01% solution): 90%; day from which wound area differs significantly (p<0.05) from the vehicle control group (0.01% solution): ≥ 7 days; wound area reduction (0.1% solution): 93%; day from which wound area differs significantly (p<0.05) from the vehicle control group (0.1% solution): ≥ 4 days
